{"source": "patent US7858349B2", "about": "“Anti-cancer compounds” (The Regents of the University of Colorado, priority 1999, dated 2010)", "key": {"PC3 PC cells": {"system": "PC3 PC cells", "assay": "Inhibition of PC3 tumor growth in vivo in nude mice", "set-up": "species or system athymic nude mice; key to PC3 In vivo % inhib.: an IC50 value of “0” represents no detectable anti-cancer activity for a drug in a given cell line; “Stim.” indicates the observation of a stimulatory activity on the growth of the cancer cell line", "conditions": "percent inhibition of tumor growth in nude mice; prostate cancer; i.p. 5 mg/kg/every second day or 10 mg/kg/every fourth day", "procedure": "Compounds having high in vitro cytotoxic activity were tested against implanted tumors in vivo. Athymic nude mice were implanted subcutaneously with suspensions (2 million SHP-77 SCLC cells, 1 million A549 NSCLC cells or 1.5 million PC3 PC cells) in Matrigel suspension. On the eighth day after tumor implantation groups of 5 mice bearing implants were injected intraperitoneally with the compounds being tested at 5 mg/kg/every second day or at 10 mg/kg/every fourth day; control animals were injected with an equal volume of isotonic saline. Less soluble compounds were initially dissolved in dimethyl sulfoxide (DMSO) and diluted with medium. In those cases the control injections contained the same concentration of DMSO. Tumor size was measured with a caliper three times per week. Tumor volume was calculated by the formula: Volume(cc)=3.14×(length)×(width)^2/6 At autopsy tumors were removed and weighed. Tumor inhibition was calculated on both weight and measurement basis. In each Table, an IC50 value of “0” represents no detectable anti-cancer activity for a drug in a given cell line and “Stim.” indicates the observation of a stimulatory activity on the growth of the cancer cell line."}, "SCLC strain SHP-77": {"system": "SCLC strain SHP-77", "assay": "MTT assay for cell survival, SCLC SHP-77 in vitro", "assay_type": "cell-based, human", "conditions": "ED50 for killing of SCLC strain SHP-77 in vitro, 4 days, 0 = no detectable activity"}}, "note": "Like-named read-outs stand apart in the source and are kept apart here."}
{"smiles": "O=C(/C=C/c1c(F)c(F)c(F)c(F)c1F)N[C@@H](Cc1ccc(OCc2c(Cl)cccc2Cl)cc1)C(=O)N1CCN(c2cccc(Cl)c2Cl)CC1", "note": "[Analog M-1578, F5c-OC2Y-Dcpp]", "values": [{"measurement": "PC3 In vivo % inhib.", "setting": "PC3 PC cells", "value": "Stim."}]}
{"smiles": "CC1(C)CC(NC(=O)C(Cc2ccc(OCc3c(Cl)cccc3Cl)cc2)NC(=O)C23CC4CC(CC(C4)C2)C3)CC(C)(C)N1", "note": "(stereo not shown) [Analog M-1494, Aca-OC2Y-Atmp]", "values": [{"measurement": "PC3 In vivo % inhib.", "setting": "PC3 PC cells", "value": 40, "unit": "%"}, {"measurement": "IC50", "setting": "SCLC strain SHP-77; read-out: SCLC SHP-77 IC50", "value": 1.6, "unit": "µM"}]}
{"smiles": "COc1ccc2cc(C(C)C(=O)NC(Cc3ccc(C#N)cc3)C(=O)NC3CC(C)(C)NC(C)(C)C3)ccc2c1", "note": "(stereo not shown) [Analog M-1508, Napr-PCNF-Atmp]", "values": [{"measurement": "PC3 In vivo % inhib.", "setting": "PC3 PC cells", "value": 45, "unit": "%"}, {"measurement": "IC50", "setting": "SCLC strain SHP-77; read-out: SCLC SHP-77 IC50", "value": 23, "unit": "µM"}]}
{"smiles": "CC1(C)CC(NC(=O)C(Cc2ccc(OCc3c(Cl)cccc3Cl)cc2)NC(=O)c2ccc(C(F)(F)F)cc2)CC(C)(C)N1", "note": "(stereo not shown) [Analog M-1484, Ptmb-OC2Y-Atmp]", "values": [{"measurement": "PC3 In vivo % inhib.", "setting": "PC3 PC cells", "value": "Stim."}, {"measurement": "IC50", "setting": "SCLC strain SHP-77; read-out: SCLC SHP-77 IC50", "value": 1.8, "unit": "µM"}]}
{"smiles": "O=C([C@H](Cc1ccc(OCc2c(Cl)cccc2Cl)cc1)NCc1c(F)c(F)c(F)c(F)c1F)N1CCN(C/C=C/c2ccccc2)CC1", "note": "[Analog M-1634, F5b-OC2Y-tCip]", "values": [{"measurement": "PC3 In vivo % inhib.", "setting": "PC3 PC cells", "value": "Stim."}, {"measurement": "IC50", "setting": "SCLC strain SHP-77; read-out: SCLC SHP-77 IC50", "value": "> 60", "unit": "µM"}]}
{"smiles": "COc1ccc2c(c1)c(CC(=O)NC(Cc1ccc(OCc3c(Cl)cccc3Cl)cc1)C(=O)N1CC(C)N(Cc3ccccc3)C(C)C1)c(C)n2C(=O)c1ccc(Cl)cc1", "note": "(stereo not shown) [Analog M-1560, Indo-OC2Y-cDmbp]", "values": [{"measurement": "PC3 In vivo % inhib.", "setting": "PC3 PC cells", "value": "Stim."}, {"measurement": "IC50", "setting": "SCLC strain SHP-77; read-out: SCLC SHP-77 IC50", "value": "> 60", "unit": "µM"}]}
{"smiles": "O=C(C=Cc1c(F)c(F)c(F)c(F)c1F)NC(Cc1ccc(-c2ccccc2)cc1)C(=O)N1CCN(c2ncccn2)CC1", "note": "(stereo not shown) [Analog M-1260, F5c-Bip-Pmpz]", "values": [{"measurement": "PC3 In vivo % inhib.", "setting": "PC3 PC cells", "value": 60, "unit": "%"}, {"measurement": "IC50", "setting": "SCLC strain SHP-77; read-out: SHP-77 In vitro IC50", "value": 10, "unit": "µM"}]}
{"smiles": "COc1ccc2c(c1)c(CC(=O)NC(Cc1ccc(OCc3c(Cl)cccc3Cl)cc1)C(=O)NC1CN3CCC1CC3)c(C)n2C(=O)c1ccc(Cl)cc1", "note": "[Analog M-1590, Indo-OC2Y-(S)-Aqu]", "values": [{"measurement": "PC3 In vivo % inhib.", "setting": "PC3 PC cells", "value": "Stim."}, {"measurement": "IC50", "setting": "SCLC strain SHP-77; read-out: SCLC SHP-77 IC50", "value": 4.1, "unit": "µM"}]}
{"smiles": "CC1(C)CC(NC(=O)C(Cc2ccc(OCc3c(Cl)cccc3Cl)cc2)NC(=O)C2C(C)(C)C2(C)C)CC(C)(C)N1", "note": "(stereo not shown) [Analog M-1406, Tmcc-OC2Y-Atmp]", "values": [{"measurement": "PC3 In vivo % inhib.", "setting": "PC3 PC cells", "value": 25, "unit": "%"}, {"measurement": "IC50", "setting": "SCLC strain SHP-77; read-out: SCLC SHP-77 IC50", "value": 5.3, "unit": "µM"}]}
{"smiles": "CC1(C)CC(NC(=O)C(Cc2ccc(OCc3c(Cl)cccc3Cl)cc2)NC(=O)c2ccc(OC(F)(F)F)cc2)CC(C)(C)N1", "note": "(stereo not shown) [Analog M-1538, 4Tfmb-OC2Y-Atmp]", "values": [{"measurement": "PC3 In vivo % inhib.", "setting": "PC3 PC cells", "value": "Stim."}, {"measurement": "IC50", "setting": "SCLC strain SHP-77; read-out: SCLC SHP-77 IC50", "value": 1.8, "unit": "µM"}]}
{"smiles": "CC1(C)CC(NC(=O)C(Cc2ccc(C#N)cc2)NC(=O)c2c(F)c(F)c(F)c(F)c2F)CC(C)(C)N1", "note": "(stereo not shown) [Analog M-1490, F5bz-PCNF-Atmp]", "values": [{"measurement": "IC50", "setting": "SCLC strain SHP-77; read-out: SCLC SHP-77 IC50", "value": "> 60", "unit": "µM"}]}
{"smiles": "O=C(C=Cc1c(F)c(F)c(F)c(F)c1F)NC(Cc1c(F)c(F)c(F)c(F)c1F)C(=O)N1CCN(Cc2c(F)c(F)c(F)c(F)c2F)CC1", "note": "(stereo not shown) [Analog M-1730, F5c-F5F-Pipz(F5b)]", "values": [{"measurement": "IC50", "setting": "SCLC strain SHP-77; read-out: SCLC SHP-77 IC50", "value": 21, "unit": "µM"}]}
{"smiles": "CC1(C)CC(NC(=O)C(Cc2cc(I)c(OCc3c(Cl)cccc3Cl)c(I)c2)NC(=O)C(c2ccc(Cl)cc2)c2ccc(Cl)cc2)CC(C)(C)N1", "note": "(stereo not shown) [Analog M-1762, Bcpa-OCIY-Atmp]", "values": [{"measurement": "IC50", "setting": "SCLC strain SHP-77; read-out: SCLC SHP-77 IC50", "value": 3, "unit": "µM"}]}
{"smiles": "CC1(C)CC(NC(=O)C(Cc2ccc(OCc3c(Cl)cccc3Cl)cc2)NC(=O)c2cccc3ccccc23)CC(C)(C)N1", "note": "(stereo not shown) [Analog M-1706, 1Nap-OC2Y-Atmp]", "values": [{"measurement": "IC50", "setting": "SCLC strain SHP-77; read-out: SCLC SHP-77 IC50", "value": 4.2, "unit": "µM"}]}
{"smiles": "O=C(C=Cc1c(F)c(F)c(F)c(F)c1F)NC(Cc1ccc(I)cc1)C(=O)N1CCN(c2ccccn2)CC1", "note": "(stereo not shown) [Analog M-1248, F5c-PIF-Pypz]", "values": [{"measurement": "IC50", "setting": "SCLC strain SHP-77; read-out: SHP-77 In vitro IC50", "value": 13, "unit": "µM"}]}
{"smiles": "CC1(C)CC(NC(=O)C(Cc2ccc(I)cc2)NC(=O)C=Cc2c(F)c(F)c(F)c(F)c2F)CC(C)(C)N1", "note": "(stereo not shown) [Analog M-1142, F5c-PIF-Atmp]", "values": [{"measurement": "IC50", "setting": "SCLC strain SHP-77; read-out: SHP-77 In vitro IC50", "value": 7.2, "unit": "µM"}]}
{"smiles": "CO[C@](C(=O)NC(Cc1ccc(OCc2c(Cl)cccc2Cl)cc1)C(=O)NC1CC(C)(C)NC(C)(C)C1)(c1ccccc1)C(F)(F)F", "note": "(stereo partly drawn) [Analog M-1750, (S)-MTPA-OC2Y-Atmp]", "values": [{"measurement": "IC50", "setting": "SCLC strain SHP-77; read-out: SCLC SHP-77 IC50", "value": 4.2, "unit": "µM"}]}
{"smiles": "O=C(/C=C/c1c(F)c(F)c(F)c(F)c1F)N[C@@H](Cc1ccc(OCc2c(Cl)cccc2Cl)cc1)C(=O)NCCCn1ccnc1", "note": "[Analog M-1642, F5c-OC2Y-Apia]", "values": [{"measurement": "IC50", "setting": "SCLC strain SHP-77; read-out: SCLC SHP-77 IC50", "value": 42, "unit": "µM"}]}
{"smiles": "O=C(/C=C/c1c(F)c(F)c(F)c(F)c1F)N[C@@H](Cc1ccc(OCc2c(Cl)cccc2Cl)cc1)C(=O)N1CCN(C/C=C/c2ccccc2)CC1", "note": "[Analog M-1564, F5c-OC2Y-tCip]", "values": [{"measurement": "IC50", "setting": "SCLC strain SHP-77; read-out: SCLC SHP-77 IC50", "value": 4, "unit": "µM"}]}
